Laboratory results published in US20240384268A1, “Oligonucleotides” (Hudson Institute of Medical Research, priority 2021, published 2024).
In the oligonucleotide strings, read from the 5' end, every base follows the letter of its sugar. An asterisk marks phosphorothioate; unmarked linkages are phosphodiester. Other units and linkages are bracketed, terminal groups are in braces. A string of capitals states the bases alone. d = 2'-deoxy (DNA); m = 2'-O-methyl

Biological target: cGAS (Homo sapiens, UniProt Q8N884)
Sequence (Q8N884 whole entry): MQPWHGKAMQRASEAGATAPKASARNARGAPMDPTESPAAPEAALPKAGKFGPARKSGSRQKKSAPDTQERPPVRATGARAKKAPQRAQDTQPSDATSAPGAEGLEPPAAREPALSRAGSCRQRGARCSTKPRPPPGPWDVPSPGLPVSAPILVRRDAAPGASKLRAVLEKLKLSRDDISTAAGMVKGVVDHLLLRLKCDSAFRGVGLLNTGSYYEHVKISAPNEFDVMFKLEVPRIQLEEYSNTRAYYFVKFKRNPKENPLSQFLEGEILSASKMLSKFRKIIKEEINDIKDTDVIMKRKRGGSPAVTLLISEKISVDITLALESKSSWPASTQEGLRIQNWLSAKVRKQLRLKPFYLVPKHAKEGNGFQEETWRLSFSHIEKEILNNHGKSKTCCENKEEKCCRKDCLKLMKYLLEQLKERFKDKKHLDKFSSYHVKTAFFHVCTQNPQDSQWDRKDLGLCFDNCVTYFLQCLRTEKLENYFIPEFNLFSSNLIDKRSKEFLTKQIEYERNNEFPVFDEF
Experiment: ISD70-driven IP-10 (and IFN-β) production in THP-1 cells, ELISA
Format: cell-based
Design: endogenous in cells; host or cells: THP-1 (undifferentiated)
Details: for cGAS-100 nM: averaged IP-10 levels relative to ISD70: THP-1, 100 nM ASO overnight, then ISD70 2.5 μg/ml 7-8 h, percentage of ISD70 only; for cGAS 100 nM: MOE-modified ASO at 100 nM, averaged IP-10 levels relative to ISD70 condition

Substance | cGAS-100 nM: averaged IP-10 levels relative to ISD70 [%] | cGAS 100 nM
mA*mG*mG*mC*mC*T*C*C*A*G*T*G*T*C*T*mU*mC*mU*mC*mC (mA*mG*mG*mC*mC*dT*dC*dC*dA*dG*dT*dG*dT*dC*dT*mU*mC*mU*mC*mC; antisense) [[CDKN2B-AS1]2218] | 62.85 | 
mC*mC*mA*mU*mG*T*C*C*C*A*G*G*C*C*T*mC*mC*mA*mG*mU (CCAUGTCCCAGGCCTCCAGU; sugars from the 5' end m5 d10 m5, all phosphorothioate, methylation of C not given here) [[CDKN2B-AS1]2227] | 36.34 | 
TGGGCTGGAATCCGAGTTAT (antisense; 2'-MOE modified, pattern not given here) [EGFR-4705 MOE] |  | 0.433
mG*mU*mC*mA*mA*A*C*C*T*A*G*A*A*A*G*mA*mA*mG*mC*mA (mG*mU*mC*mA*mA*dA*dC*dC*dT*dA*dG*dA*dA*dA*dG*mA*mA*mG*mC*mA; antisense) [[CDKN2B-AS1]1528] | 68.94 | 
mC*mC*mC*mU*mA*A*T*G*C*T*T*T*C*C*T*mC*mU*mC*mC*mA (mC*mC*mC*mU*mA*dA*dT*dG*dC*dT*dT*dT*dC*dC*dT*mC*mU*mC*mC*mA; antisense) [[LINC-PINT1877 KL] | 89.09 | 
mC*mA*mU*mC*mC*C*T*T*C*T*G*C*T*G*C*mC*mA*mA*mG*mC (mC*mA*mU*mC*mC*dC*dT*dT*dC*dT*dG*dC*dT*dG*dC*mC*mA*mA*mG*mC; antisense) [[LINC-PINT]98] | 70.60 | 
mC*mU*mU*mC*mU*C*T*C*T*G*G*T*C*C*C*mA*mU*mC*mC*mC (mC*mU*mU*mC*mU*dC*dT*dC*dT*dG*dG*dT*dC*dC*dC*mA*mU*mC*mC*mC) [[LINC-PINT]112] | 82.64 | 
mC*mA*mA*mG*mC*C*C*C*A*G*C*G*T*T*C*mC*mU*mC*mC*mG (mC*mA*mA*mG*mC*dC*dC*dC*dA*dG*dC*dG*dT*dT*dC*mC*mU*mC*mC*mG; antisense) [[LINC-PINT]83.1] | 77.10 | 
TTTGCACACTTCGTACCCAA (antisense; 2'-MOE modified, pattern not given here) [CAMSAP1-4916 MOE] |  | 0.335
mU*mU*mC*mU*mC*T*C*T*G*G*T*C*C*C*A*mU*mC*mC*mC*mU (mU*mU*mC*mU*mC*dT*dC*dT*dG*dG*dT*dC*dC*dC*dA*mU*mC*mC*mC*mU; antisense) [[LINC-PINT]111] | 77.41 | 
mG*mU*mC*mU*mC*C*T*C*C*A*C*A*C*C*C*mU*mU*mC*mU*mC (mG*mU*mC*mU*mC*dC*dT*dC*dC*dA*dC*dA*dC*dC*dC*mU*mU*mC*mU*mC; antisense) [[LINC-PINT]126] | 114.36 | 
ATGCCATCCACTTGATAGGC (antisense; 2'-MOE modified, pattern not given here) [EGFR-2874 MOE] |  | 0.639
mC*mC*mU*mU*mC*T*C*T*C*T*G*GT*C*C*mC*mA*mU*mC*mC (CCUUCTCTCTGGTCCCAUCC; antisense; chemistry not fully specified) [[LINC-PINT]113] | 103.79 | 
mG*mG*mU*mC*mU*C*C*T*C*C*A*C*A*C*C*mC*mU*mU*mC*mU (mG*mG*mU*mC*mU*dC*dC*dT*dC*dC*dA*dC*dA*dC*dC*mC*mU*mU*mC*mU; antisense) [[LINC-PINT]127] | 36.95 | 
mU*mC*mC*mC*mA*A*C*T*C*T*T*C*T*A*A*mC*mU*mC*mG*mU (mU*mC*mC*mC*mA*dA*dC*dT*dC*dT*dT*dC*dT*dA*dA*mC*mU*mC*mG*mU; antisense) [[LINC-PINT]1284 KL] | 99.64 | 
GTCCAAGATCAGCAGTCTCA (antisense; 2'-MOE modified, pattern not given here) [CTNN2B-2341 MOE] |  | 0.705
mA*mA*mU*mA*mU*C*T*G*C*T*G*C*C*C*A*mC*mC*mU*mU*mC (mA*mA*mU*mA*mU*dC*dT*dG*dC*dT*dG*dC*dC*dC*dA*mC*mC*mU*mU*mC; antisense) [[CDKN2B-AS1]832] | 83.17 | 
